Test results from publication PMC5030124 (Nature chemical biology, 2016).

Legend:
[1] = tested on: AR target gene expression in LNCaP-AR cells; assay: Real-time PCR of AR target genes in LNCaP-AR cells; type: cell-based; details: CBs 20 μM, Enz 10 μM; for AR target gene expression, absence of R1881: Bic 10 μM
[2] = tested on: AR recruitment to KLK3 and NKX3-1 regulatory regions in LNCaP-AR cells; assay: Chromatin immunoprecipitation assay, LNCaP-AR cells; type: cell-based; details: Enz 10 μM, Bic 10 μM, 10 20 μM, R1881 0.1 nM
LNCaP-AR cells = assay: Prostate cancer cell proliferation assay, LNCaP-AR; details: 7 days, increasing doses, no R1881
in vivo = details: NSG, mouse, ip
[3] = tested on: nuclear AR in HEK293 cells expressing wt-AR; assay: Cellular fractionation assay, HEK293 cells expressing wt-AR; type: cell-based; details: 4 hours, R1881 0.1 nM
[4] = tested on: AR subcellular distribution in VCaP cells; assay: High content imaging of AR N/C ratio, VCaP cells; details: R1881 0.1 nM, Enz 20 μM, 10 20 μM
[5] = tested on: AR subcellular distribution in HEK293 cells expressing wt-AR; assay: High content imaging of AR N/C ratio, HEK293 cells expressing wt-AR; details: R1881 0.1 nM, Enz 20 μM, 10 20 μM

Compound | AR target gene expression, absence of R1881 [1] | recruitment of AR to DNA (ChIP) [2] | cell growth of LNCaP-AR cells (LNCaP-AR cells) | AR target gene expression, presence of R1881 ([1]; R1881 0.1 nM) | MTD (in vivo) | AR in nuclear and cytoplasmic fractions [3] | AR nuclear-to-cytoplasmic (N/C) ratio [4] | AR nuclear-to-cytoplasmic (N/C) ratio [5]
CC(O)(CS(=O)(=O)c1ccc(F)cc1)C(=O)Nc1ccc(C#N)c(C(F)(F)F)c1 (stereo not drawn) [Bic, bicalutamide] | partial agonist | facilitated AR recruitment to DNA | promoted cellular proliferation | – | – | – | – | –
CNC(=O)c1ccc(N2C(=S)N(c3ccc(C#N)c(C(F)(F)F)c3)C(=O)C2(C)C)cc1F [Enz, enzalutamide] | did not promote AR target gene transcription | without effect | without effect | reversed androgen-stimulated gene expression | 15 mg/kg | – | – | –
C[C@]1(O)CC[C@H]2[C@@H]3CCC4=CC(=O)CCC4=C3C=C[C@@]21C [R1881] | – | facilitated AR recruitment to DNA | – | – | – | movement of AR from the cytoplasmic to nuclear fraction | increase in AR nuclear-to-cytoplasmic (N/C) ratio | increase in AR nuclear-to-cytoplasmic (N/C) ratio
